Reference: patent US20070166415A1, “Safe medicine for treating and preventing cancer and method of use” (priority 2006, published 2007)

Experiments:
[1] = dog, in vivo
Description: Twenty normal adult dogs which weight approximately 10 kg[…] used in experiments.
Most deaths were caused by cardiac dysfunction.

[2] = test system: salmonella typhimurium TA97; assay: Salmonella mutagenicity test, TA97; format: cell-based
Method: (§1) Methods for detecting carcinogens and mutagens with the salmonellia mutagenicity test are highly efficient in detecting carcinogens and mutagens. Major carcinogens tested have been detected as mutagens. Salmonella mutagenicity assay is very sensitive and simply test for detecting mutagens and carcinogens.
(§2) Mutagenicity assays were carried out at least in triplicate.

[3] = test system: salmonella typhimurium TA98; assay: Salmonella mutagenicity test, TA98; format: cell-based
Method: as §1, §2

[4] = Metabolism (organ and blood radioactivity) of [^3H]-HHT in P388 mice; format: in vivo
Method: Animals: Adult DBA/2J male mice, 6 to 8 weeks old. All animals weighed approximately 25 g when used in experiments. Each member of which received identical dosed (i.p.) of HHT. Tumor: P388 leukemic cells induced in mice by inoculation with L1210 or P388 leukemic cells (1.0×10^5). After P388 induced in mice 5 days, 1 mg/kg of [^3H]-HHT (100 μC/mg) was injected to mice. […] Mice were killed at 1, 3, 6 and 24 hours after injection of [^3H]-HHT. The key data of HHT in metabolism process are determined counts per minute (CPM) of [^3H]-HHT in organs. CPM is determined by liquid scintillation counting (LSC). The methods of LSC combined with radioactive of [^3H]-HHT can be determined using a tracer of HHT in organs. After killed animals, organs and blood were obtained from P388 mice. […] Other processes are similar to the standard method.

[5] = test system: salmonella typhimurium TA100; assay: Salmonella mutagenicity test, TA100; format: cell-based
Method: as §1, §2

COC(=O)C[C@](O)(CCCC(C)(C)O)C(=O)O[C@@H]1C(OC)=C[C@]23CCCN2CCc2cc4c(cc2[C@H]13)OCO4 [HHT, Homoharringtonine]
reversibility of toxicities observed [1]: completely reversible upon discontinuation of treatment
Number of His^+revertants/plate ([2]; TA97 +S, 0.1 μg/plate): 145 ± 14 revertants/plate
Number of His^+revertants/plate ([2]; TA97 +S, 1 μg/plate): 150 ± 14 revertants/plate
Number of His^+revertants/plate ([2]; TA97 +S, 10 μg/plate): 165 ± 16 revertants/plate
Number of His^+revertants/plate ([2]; TA97 +S, 100 μg/plate): 160 ± 17 revertants/plate
Number of His^+revertants/plate ([2]; TA97 −S, 0.1 μg/plate): 120 ± 10 revertants/plate
Number of His^+revertants/plate ([2]; TA97 −S, 1 μg/plate): 130 ± 11 revertants/plate
Number of His^+revertants/plate ([2]; TA97 −S, 10 μg/plate): 160 ± 16 revertants/plate
Number of His^+revertants/plate ([2]; TA97 −S, 100 μg/plate): 150 ± 16 revertants/plate
Number of His^+revertants/plate ([3]; TA98 +S, 0.1 μg/plate): 34 ± 4 revertants/plate
Number of His^+revertants/plate ([3]; TA98 +S, 1 μg/plate): 32 ± 4 revertants/plate
Number of His^+revertants/plate ([3]; TA98 +S, 10 μg/plate): 36 ± 3 revertants/plate
Number of His^+revertants/plate ([3]; TA98 +S, 100 μg/plate): 34 ± 4 revertants/plate
Number of His^+revertants/plate ([3]; TA98 −S, 0.1 μg/plate): 29 ± 3 revertants/plate
Number of His^+revertants/plate ([3]; TA98 −S, 1 μg/plate): 30 ± 3 revertants/plate
Number of His^+revertants/plate ([3]; TA98 −S, 10 μg/plate): 38 ± 4 revertants/plate
Number of His^+revertants/plate ([3]; TA98 −S, 100 μg/plate): 32 ± 4 revertants/plate
CPM of [^3H]-HHT, Bone ([4]; 1 hour after 1 mg/kg i.p.): 500 CMP/mg organ
CPM of [^3H]-HHT, Brain ([4]; 1 hour after 1 mg/kg i.p.): 499 CMP/mg organ
CPM of [^3H]-HHT, Contents of intestine ([4]; 1 hour after 1 mg/kg i.p.): 3323 CMP/mg organ
CPM of [^3H]-HHT, Contents of stomach ([4]; 1 hour after 1 mg/kg i.p.): 6821 CMP/mg organ
CPM of [^3H]-HHT, Heart ([4]; 1 hour after 1 mg/kg i.p.): 1403 CMP/mg organ
CPM of [^3H]-HHT, Intestine ([4]; 1 hour after 1 mg/kg i.p.): 1638 CMP/mg organ
CPM of [^3H]-HHT, Kidney ([4]; 1 hour after 1 mg/kg i.p.): 6501 CMP/mg organ
CPM of [^3H]-HHT, Liver ([4]; 1 hour after 1 mg/kg i.p.): 4145 CMP/mg organ
CPM of [^3H]-HHT, Lung ([4]; 1 hour after 1 mg/kg i.p.): 2100 CMP/mg organ
CPM of [^3H]-HHT, Spleen ([4]; 1 hour after 1 mg/kg i.p.): 2828 CMP/mg organ
CPM of [^3H]-HHT, Stomach ([4]; 1 hour after 1 mg/kg i.p.): 1626 CMP/mg organ
CPM of [^3H]-HHT, Bone ([4]; 3 hours after 1 mg/kg i.p.): 560 CMP/mg organ
CPM of [^3H]-HHT, Brain ([4]; 3 hours after 1 mg/kg i.p.): 646 CMP/mg organ
CPM of [^3H]-HHT, Contents of intestine ([4]; 3 hours after 1 mg/kg i.p.): 7215 CMP/mg organ
CPM of [^3H]-HHT, Contents of stomach ([4]; 3 hours after 1 mg/kg i.p.): 84375 CMP/mg organ
CPM of [^3H]-HHT, Heart ([4]; 3 hours after 1 mg/kg i.p.): 1800 CMP/mg organ
CPM of [^3H]-HHT, Intestine ([4]; 3 hours after 1 mg/kg i.p.): 3288 CMP/mg organ
CPM of [^3H]-HHT, Kidney ([4]; 3 hours after 1 mg/kg i.p.): 3121 CMP/mg organ
CPM of [^3H]-HHT, Liver ([4]; 3 hours after 1 mg/kg i.p.): 6718 CMP/mg organ
CPM of [^3H]-HHT, Lung ([4]; 3 hours after 1 mg/kg i.p.): 2427 CMP/mg organ
CPM of [^3H]-HHT, Spleen ([4]; 3 hours after 1 mg/kg i.p.): 2426 CMP/mg organ
CPM of [^3H]-HHT, Stomach ([4]; 3 hours after 1 mg/kg i.p.): 2321 CMP/mg organ
CPM of [^3H]-HHT, Bone ([4]; 6 hours after 1 mg/kg i.p.): 505 CMP/mg organ
CPM of [^3H]-HHT, Brain ([4]; 6 hours after 1 mg/kg i.p.): 793 CMP/mg organ
CPM of [^3H]-HHT, Contents of intestine ([4]; 6 hours after 1 mg/kg i.p.): 6250 CMP/mg organ
CPM of [^3H]-HHT, Contents of stomach ([4]; 6 hours after 1 mg/kg i.p.): 100719 CMP/mg organ
CPM of [^3H]-HHT, Heart ([4]; 6 hours after 1 mg/kg i.p.): 1193 CMP/mg organ
CPM of [^3H]-HHT, Intestine ([4]; 6 hours after 1 mg/kg i.p.): 2475 CMP/mg organ
CPM of [^3H]-HHT, Kidney ([4]; 6 hours after 1 mg/kg i.p.): 3501 CMP/mg organ
CPM of [^3H]-HHT, Liver ([4]; 6 hours after 1 mg/kg i.p.): 4109 CMP/mg organ
CPM of [^3H]-HHT, Lung ([4]; 6 hours after 1 mg/kg i.p.): 1788 CMP/mg organ
CPM of [^3H]-HHT, Spleen ([4]; 6 hours after 1 mg/kg i.p.): 2198 CMP/mg organ
CPM of [^3H]-HHT, Stomach ([4]; 6 hours after 1 mg/kg i.p.): 3703 CMP/mg organ
Number of His^+revertants/plate ([5]; TA100 +S, 0.1 μg/plate): 158 revertants/plate
Number of His^+revertants/plate ([5]; TA100 +S, 1 μg/plate): 152 revertants/plate
Number of His^+revertants/plate ([5]; TA100 +S, 10 μg/plate): 165 revertants/plate
Number of His^+revertants/plate ([5]; TA100 +S, 100 μg/plate): 160 revertants/plate
Number of His^+revertants/plate ([5]; TA100 −S, 0.1 μg/plate): 148 ± 12 revertants/plate
Number of His^+revertants/plate ([5]; TA100 −S, 1 μg/plate): 140 ± 13 revertants/plate
Number of His^+revertants/plate ([5]; TA100 −S, 10 μg/plate): 162 ± 17 revertants/plate
Number of His^+revertants/plate ([5]; TA100 −S, 100 μg/plate): 158 ± 15 revertants/plate
